SMILES strings stand for the structures.

Here are results for 31 molecules from US8178490B2, “Polybasic bacterial efflux pump inhibitors and therapeutic uses thereof” (priority 2007, dated 2012).

This data set can be described thus: Rat serum pharmacokinetics after 1.5-hour IV infusion. It counts as in vivo. The conditions noted are these: two-compartment model; for Cmax / clearance: 1.5-hour IV infusion in 0.9% saline, dose (mg/kg) differs per compound; for clearance: read-out: Clearance (free drug clearance) (converted); for pharmacokinetic profile: […] IV infusion in 0.9% saline, total dose 2, 5, 10 or 20 mg/kg. The protocol: In the experiment depicted in Table 7, above, rat serum pharmacokinetics of selected inhibitor compounds was evaluated after 1.5-hour IV infusion of 1.5 ml solution of corresponding efflux pump inhibitor in 0.9% saline. Depending on the concentration used the total infused dose was 2, 5, 10 or 20 mg/kg. A two-compartment model was used to fit the data and calculate PK parameters.

What is called Cmax is the maximum level reached in the sampled fluid or tissue. The clearance is the volume of plasma or blood freed of the substance per unit of time. As to `Cc1ccc(NC(=O)[C@H](CCc2ccccc2)NC(=O)[C@@H](N)CC(=O)N(CCN)CCN)cc1` [Compound 77], the Cmax came to 2960 ng/mL and the clearance is 63.2 mL/min/kg.

Regarding `NCCN(CCN)C(=O)C[C@H](N)C(=O)N[C@@H](CCc1ccccc1)C(=O)NCc1c(Cl)cccc1Cl` [Compound 224], the Cmax is 1590 ng/mL and the clearance is 66.2 mL/min/kg.

`CC(C)c1ccc(NC(=O)[C@H](CCc2ccccc2)NC(=O)[C@@H](N)CC(=O)N(CCN)CCN)cc1` [Compound 91]: the concentration peaked (Cmax) at 2670 ng/mL and the clearance is 98.2 mL/min/kg.

Regarding `CC(C)Oc1ccc(CNC(=O)[C@H](CCc2ccccc2)NC(=O)[C@@H](N)CC(=O)N(CCN)CCN)cc1` [Compound 237], the Cmax came out at 1260 ng/mL and the clearance was 70.8 mL/min/kg.

Regarding `COc1cc(OC(F)(F)F)ccc1CNC(=O)[C@H](CCc1ccccc1)NC(=O)[C@@H](N)CC(=O)N(CCN)CCN` [Compound 233], the peak concentration (Cmax) is 4920 ng/mL and the clearance was 118 mL/min/kg.

`NCCN(CCN)C(=O)C[C@H](N)C(=O)N[C@@H](CCc1ccccc1)C(=O)NCc1ccc(F)c(C(F)(F)F)c1` [Compound 102]: the peak concentration (Cmax) was determined as 5050 ng/mL and the clearance was 43 mL/min/kg.

`CC(C)Oc1ccc(NC(=O)[C@H](CCc2ccccc2)NC(=O)[C@@H](N)CC(=O)N(CCN)CCN)cc1` [Compound 214]: the peak level (Cmax) was 1540 ng/mL and the clearance is 92.2 mL/min/kg.

Take `CCOc1ccc(NC(=O)[C@H](CCc2ccccc2)NC(=O)[C@@H](N)CC(=O)N(CCN)CCN)cc1` [Compound 85]: the peak level (Cmax) was 13900 ng/mL and the clearance was 50 mL/min/kg.

On to `Cl.Cl.Cl.Cl.NCCN(CCN)CCC[C@H](N)C(=O)N[C@H](CCc1ccccc1)C(=O)Nc1cnc2ccccc2c1` [Compound 46, 3-[(1S)-4-[bis(2-azaniumylethyl)amino]-1-{[(1R)-1-carbamoyl-3-phenylpropyl]carbamoyl}butan-1-aminium]quinolin-1-ium tetrachloride], for which the Cmax turned out to be 4000 ng/mL, the clearance is 13.5 mL/min/kg and the pharmacokinetic profile entry was “particularly attractive pharmacokinetic profiles”.

In the case of `Cc1cc(CNC(=O)[C@H](CCc2ccccc2)NC(=O)[C@@H](N)CC(=O)N(CCN)CCN)c(C(F)(F)F)o1` [Compound 67], the highest level (Cmax) was 2980 ng/mL and the clearance was 51.7 mL/min/kg.

With `NCCN(CCN)C(=O)C[C@H](N)C(=O)N[C@@H](CCc1ccccc1)C(=O)Nc1ccc2cnccc2c1` [Compound 49], the highest level (Cmax) was 2390 ng/mL and the clearance is 70.2 mL/min/kg.

Take `Cl.Cl.Cl.Cl.NCCN(CCN)C(=O)C[C@H](N)C(=O)NCC(=O)N[C@@H](CCc1ccccc1)C(=O)Nc1cnc2ccccc2c1` [Compound 348, 3-[(1S)-2-[bis(2-azaniumylethyl)carbamoyl]-1-[({[(1S)-1-carbamoyl-3-phenylpropyl]carbamoyl}methyl)carbamoyl]ethan-1-aminium]quinolin-1-ium tetrachloride]: the Cmax was 2200 ng/mL and the clearance is 328 mL/min/kg.

For the molecule `CC(C)Oc1ccc(NC(=O)[C@H](CCc2ccccc2)NC(=O)[C@@H](N)CC(=O)N(CCN)CCN)c(F)c1` [Compound 215], the concentration peaked (Cmax) at 690 ng/mL and the clearance is 93.3 mL/min/kg.

Consider `Cl.Cl.Cl.Cl.NCCN(CCN)C(=O)CC[C@H](N)C(=O)N[C@H](CCc1ccccc1)C(=O)Nc1cnc2ccccc2c1` [Compound 47, 3-[(1S)-3-[bis(2-azaniumylethyl)carbamoyl]-1-{[(1R)-1-carbamoyl-3-phenylpropyl]carbamoyl}propan-1-aminium]quinolin-1-ium tetrachloride], for which the Cmax was determined as 8100 ng/mL and the clearance was 28.3 mL/min/kg.

As to `NCCN(CCN)C(=O)C[C@H](N)C(=O)N[C@@H](CCc1ccccc1)C(=O)Nc1cccc(C(F)(F)F)c1` [Compound 90], the Cmax was 1220 ng/mL and the clearance was 103 mL/min/kg.

Take `Cc1cc(C)c(NC(=O)[C@H](CCc2ccccc2)NC(=O)[C@@H](N)CC(=O)N(CCN)CCN)c(C)c1` [Compound 88]: the maximum concentration (Cmax) was 2500 ng/mL and the clearance was 28 mL/min/kg.

Take `CCCc1ccccc1NC(=O)[C@H](CCc1ccccc1)NC(=O)[C@@H](N)CC(=O)N(CCN)CCN` [Compound 271]: the highest level (Cmax) was 340 ng/mL and the clearance was 78.5 mL/min/kg.

Turning to `Cl.Cl.Cl.Cl.NCCN(CCN)C(=O)C[C@H](N)C(=O)N[C@H](CCc1ccccc1)C(=O)Nc1cnc2ccccc2c1` [Compound 48, 3-[(1S)-2-[bis(2-azaniumylethyl)carbamoyl]-1-{[(1R)-1-carbamoyl-3-phenylpropyl]carbamoyl}ethan-1-aminium]quinolin-1-ium tetrachloride], the Cmax worked out at 7200 ng/mL, the clearance was 26 mL/min/kg and the pharmacokinetic profile result is recorded as “particularly attractive pharmacokinetic profiles”.

Consider `NCCN(CCN)C(=O)C[C@H](N)C(=O)N[C@@H](CCc1ccccc1)C(=O)NCc1ccc(OC2CCOCC2)cc1` [Compound 133], for which the Cmax came to 1270 ng/mL and the clearance was 88.3 mL/min/kg.

With `NCCN(CCN)C(=O)C[C@H](N)C(=O)N[C@@H](CCc1ccccc1)C(=O)NCc1ccc(OC(F)(F)F)cc1` [Compound 95], the peak concentration (Cmax) came out at 1750 ng/mL and the clearance is 30.2 mL/min/kg.

For the molecule `Cl.Cl.Cl.Cl.NCCN(CCN)C(=O)CC[C@H](N)C(=O)N[C@H](Cc1ccc(OC(F)(F)F)cc1)C(=O)Nc1cnc2ccccc2c1` [Compound 31, 3-[(1S)-3-[bis(2-azaniumylethyl)carbamoyl]-1-{[(1R)-1-carbamoyl-2-[4-(trifluoromethoxy)phenyl]ethyl]carbamoyl}propan-1-aminium]quinolin-1-ium tetrachloride], the Cmax came to 21900 ng/mL and the clearance was 30 mL/min/kg.

For the molecule `Cl.Cl.Cl.Cl.NCCN(CCN)C(=O)C[C@H](N)C(=O)N[C@H](Cc1ccc(C(F)(F)F)cc1)C(=O)Nc1cnc2ccccc2c1` [Compound 359, 3-[(1S)-2-[bis(2-azaniumylethyl)carbamoyl]-1-{[(1R)-1-carbamoyl-2-[4-(trifluoromethyl)phenyl]ethyl]carbamoyl}ethan-1-aminium]quinolin-1-ium tetrachloride], the concentration peaked (Cmax) at 5030 ng/mL and the clearance is 48.2 mL/min/kg.

On to `Cl.Cl.Cl.Cl.N[C@@H](CCC(=O)N1C[C@H](N)[C@@H](N)C1)C(=O)N[C@H](Cc1ccc(C(F)(F)F)cc1)C(=O)Nc1cnc2ccccc2c1` [Compound 33, 3-[(1S)-1-{[(1R)-1-carbamoyl-2-[4-(trifluoromethyl)phenyl]ethyl]carbamoyl}-4-[(3S,4S)-3,4-diazaniumylpyrrolidin-1-yl]-4-oxobutan-1-aminium]quinolin-1-ium tetrachloride], for which the maximum concentration (Cmax) stood at 3980 ng/mL and the clearance was 105 mL/min/kg.

For the molecule `NCCN(CCN)C(=O)C[C@H](N)C(=O)NCC(=O)N(Cc1ccc(C(F)(F)F)cc1)c1cnc2ccccc2c1` [Compound 357, 3-[(1S)-2-[bis(2-azaniumylethyl)carbamoyl]-1-{[({[4-(trifluoromethyl)phenyl]methyl}carbamoyl)methyl]carbamoyl}ethan-1-aminium]quinolin-1-ium tetrachloride], the concentration peaked (Cmax) at 660 ng/mL and the clearance is 145 mL/min/kg.

Take `Cl.Cl.Cl.Cl.NCCN(CCN)C(=O)C[C@H](N)C(=O)N[C@H](C(=O)Nc1cnc2ccccc2c1)C(O)c1ccc(C(F)(F)F)cc1` (stereo partly drawn) [Compound 169, 3-[(1S)-2-[bis(2-azaniumylethyl)carbamoyl]-1-{[(1S)-1-carbamoyl-2-hydroxy-2-[4-(trifluoromethyl)phenyl]ethyl]carbamoyl}ethan-1-aminium]quinolin-1-ium tetrachloride]: the peak level (Cmax) was 22900 ng/mL and the clearance was 31.3 mL/min/kg.

As for `NCCN(CCN)C(=O)C[C@H](N)C(=O)N[C@@H](CCc1ccccc1)C(=O)Nc1cnc2ccccc2c1` [Compound 2, 3-[(1S)-2-[bis(2-azaniumylethyl)carbamoyl]-1-{[(1S)-1-carbamoyl-3-phenylpropyl]carbamoyl}ethan-1-aminium]quinolin-1-ium tetrachloride], the peak level (Cmax) was 2250 ng/mL, the clearance is 217 mL/min/kg and the pharmacokinetic profile result is reported as “particularly attractive pharmacokinetic profiles”.

In the case of `Cl.Cl.Cl.Cl.N[C@@H]1CN(C(=O)CC[C@H](N)C(=O)N[C@H](Cc2ccc(C(F)(F)F)cc2)C(=O)Nc2cnc3ccccc3c2)C[C@@H]1N` [Compound 30, 3-[(1S)-1-{[(1R)-1-carbamoyl-2-[4-(trifluoromethyl)phenyl]ethyl]carbamoyl}-4-[(3R,4S)-3,4-diazaniumylpyrrolidin-1-yl]-4-oxobutan-1-aminium]quinolin-1-ium tetrachloride], the Cmax stood at 7610 ng/mL and the clearance is 56 mL/min/kg.

Take `NCCN(CCN)C(=O)C[C@H](N)C(=O)N[C@@H](CCc1ccccc1)C(=O)Nc1cc(Cl)c(Cl)cc1Cl` [Compound 87]: the Cmax turned out to be 11000 ng/mL and the clearance was 64.3 mL/min/kg.

For `Cl.Cl.Cl.Cl.N[C@@H](CCC(=O)N1C[C@H](N)[C@@H](N)C1)C(=O)N[C@H](CCc1ccccc1)C(=O)Nc1cnc2ccccc2c1` [Compound 41, 3-[(1S)-1-{[(1R)-1-carbamoyl-3-phenylpropyl]carbamoyl}-4-[(3S,4S)-3,4-diazaniumylpyrrolidin-1-yl]-4-oxobutan-1-aminium]quinolin-1-ium tetrachloride], the highest level (Cmax) was 8100 ng/mL and the clearance is 45.3 mL/min/kg.

As to `NCCN(CCN)C(=O)C[C@H](N)C(=O)N[C@@H](CCc1ccccc1)C(=O)NCc1ccc(Oc2ccccn2)cc1` [Compound 110], the concentration peaked (Cmax) at 1890 ng/mL and the clearance is 91.2 mL/min/kg.

Consider `NCCN(CCN)C(=O)C[C@@H](N)C(=O)N[C@H](CCc1ccccc1)C(=O)Nc1cnc2ccccc2c1` [Compound 44, 3-[(1R)-2-[bis(2-azaniumylethyl)carbamoyl]-1-{[(1R)-1-carbamoyl-3-phenylpropyl]carbamoyl}ethan-1-aminium]quinolin-1-ium tetrachloride], for which the peak level (Cmax) was 2680 ng/mL and the clearance was 24.7 mL/min/kg.
